# From PubChem BioAssay (NCI)
# “And” between values parts separate entries of the source, which are not always exact repeats. Equal values may be shown once.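 Interpolation was linear, between the two tested concentrations surrounding the appropriate level; five concentrations were tested over 48 hours in 96-well plates. Here, GI50 denotes the concentration required for 50% inhibition of growth. TGI: concentration producing complete growth inhibition.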
# Columns and labels:
# Experiment in all cases: inhibition of tumour cell growth, NCI panel, 48 h
# DU-145 prostate = system: DU-145 prostate
# CAKI-1 renal = system: CAKI-1 renal
# HOP-92 NSCLC = system: HOP-92 NSCLC
# SF-268 CNS = system: SF-268 CNS
# HT29 colon = system: HT29 colon
# MALME-3M melanoma = system: MALME-3M melanoma
# SW-620 colon = system: SW-620 colon
# MCF7 breast = system: MCF7 breast
# CCRF-CEM leukemia = system: CCRF-CEM leukemia
# NCI/ADR-RES ovarian = system: NCI/ADR-RES ovarian
# M14 melanoma = system: M14 melanoma
# A549 NSCLC = system: A549 NSCLC
# EKVX NSCLC = system: EKVX NSCLC
# UO-31 renal = system: UO-31 renal
# OVCAR-4 ovarian = system: OVCAR-4 ovarian
# NCI-H23 lung = system: NCI-H23 lung
# SN12C renal = system: SN12C renal
# NCI-H522 lung = system: NCI-H522 lung
# 786-0 renal = system: 786-0 renal
# TK-10 renal = system: TK-10 renal
# OVCAR-8 ovarian = system: OVCAR-8 ovarian
# HCT-116 colon = system: HCT-116 colon
# RPMI-8226 leukemia = system: RPMI-8226 leukemia
# SR leukemia = system: SR leukemia
# OVCAR-5 ovarian = system: OVCAR-5 ovarian
# SK-OV-3 ovarian = system: SK-OV-3 ovarian
# MDA-MB-231 breast = system: MDA-MB-231 breast
# SK-MEL-2 melanoma = system: SK-MEL-2 melanoma
# NCI-H460 lung = system: NCI-H460 lung
structure (smiles),measurement,setting,value
N#Cc1ccc(/C=C/C(=O)c2ccccc2)cc1,GI50,DU-145 prostate,13.4 µM and 12.3 µM
same,TGI,DU-145 prostate,26.2 µM and 24.9 µM
same,GI50,CAKI-1 renal,15.1 µM and 9.59 µM
same,TGI,CAKI-1 renal,29.6 µM and 22.8 µM
same,GI50,HOP-92 NSCLC,16.9 µM and 17.6 µM
same,TGI,HOP-92 NSCLC,65.5 µM and 39 µM
same,GI50,SF-268 CNS,13.3 µM and 9.61 µM
same,TGI,SF-268 CNS,26.7 µM and 25.4 µM
same,GI50,HT29 colon,2.33 µM and 2.53 µM
same,TGI,HT29 colon,6.05 µM and 7 µM
same,GI50,MALME-3M melanoma,18.2 µM and 14.9 µM
same,TGI,MALME-3M melanoma,33.6 µM and 31 µM
same,GI50,SW-620 colon,2.72 µM and 1.77 µM
same,TGI,SW-620 colon,7.73 µM and 3.45 µM
same,GI50,MCF7 breast,2.44 µM and 1.71 µM
same,TGI,MCF7 breast,9.25 µM and 5.38 µM
same,GI50,CCRF-CEM leukemia,8.31 µM and 2.86 µM
same,TGI,CCRF-CEM leukemia,> 57 µM and 11.5 µM
same,GI50,NCI/ADR-RES ovarian,22.8 µM and 24.2 µM
same,TGI,NCI/ADR-RES ovarian,54.8 µM and 69.8 µM
same,GI50,M14 melanoma,11.3 µM and 13.4 µM
same,TGI,M14 melanoma,> 50.5 µM and 27.8 µM
same,GI50,A549 NSCLC,14.8 µM and 15.4 µM
same,TGI,A549 NSCLC,27.9 µM and 31.8 µM
same,GI50,EKVX NSCLC,16.6 µM and 13.6 µM
same,TGI,EKVX NSCLC,34.9 µM and 27.4 µM
same,GI50,UO-31 renal,2.8 µM and 11.5 µM
same,TGI,UO-31 renal,7.98 µM and 23.9 µM
same,GI50,OVCAR-4 ovarian,16.5 µM and 13.2 µM
same,TGI,OVCAR-4 ovarian,36.5 µM and 27 µM
same,GI50,NCI-H23 lung,10.8 µM and 15.4 µM
same,TGI,NCI-H23 lung,24.3 µM and 33.2 µM
same,GI50,SN12C renal,14.8 µM and 14.2 µM
same,TGI,SN12C renal,28.3 µM and 27.7 µM
same,GI50,NCI-H522 lung,10.4 µM and 14.7 µM
same,TGI,NCI-H522 lung,22.4 µM and 31.5 µM
same,GI50,786-0 renal,15.9 µM and 14.6 µM
same,TGI,786-0 renal,> 52.2 µM and 29.2 µM
same,GI50,TK-10 renal,14.2 µM and 12.1 µM
same,TGI,TK-10 renal,28.2 µM and 26 µM
same,GI50,OVCAR-8 ovarian,9.07 µM and 11.2 µM
same,TGI,OVCAR-8 ovarian,22.2 µM and 27.5 µM
same,GI50,HCT-116 colon,1.51 µM and 1.72 µM
same,TGI,HCT-116 colon,3.17 µM
same,GI50,RPMI-8226 leukemia,2.32 µM and 1.93 µM
same,TGI,RPMI-8226 leukemia,6.4 µM and 4.83 µM
same,GI50,SR leukemia,1.88 µM and 1.52 µM
same,TGI,SR leukemia,6.11 µM
same,GI50,OVCAR-5 ovarian,16.6 µM and 14.6 µM
same,TGI,OVCAR-5 ovarian,31.1 µM and 30 µM
same,GI50,SK-OV-3 ovarian,17.3 µM and 20.2 µM
same,TGI,SK-OV-3 ovarian,33.2 µM and 44.9 µM
same,GI50,MDA-MB-231 breast,15 µM and 15.1 µM
same,TGI,MDA-MB-231 breast,29.3 µM and 30.1 µM
same,GI50,SK-MEL-2 melanoma,18.9 µM and 18.8 µM
same,TGI,SK-MEL-2 melanoma,39.1 µM and 37.8 µM
same,GI50,NCI-H460 lung,14.5 µM and 8.35 µM
same,TGI,NCI-H460 lung,28.9 µM and 22.4 µM
